Measured values from paper PMC11513924, “Addressing the Intracellular Vestibule of the Plasmodial Lactate Transporter PfFNT by p-Substituted Inhibitors Amplifies In Vitro Activity” (Journal of Medicinal Chemistry, 2024).
Read-outs that look alike come from different tables or passages of the source.

Experiments:
PfFNT [1] = target: T1, PfFNT (Plasmodium falciparum, UniProt O77389); assay: Fluorescence cross-correlation spectroscopy (FCCS) competition binding to solubilized PfFNT-GFP
T1 construct: expressed in transfected cells; membranes solubilized
T1 sequence (O77389 1-309): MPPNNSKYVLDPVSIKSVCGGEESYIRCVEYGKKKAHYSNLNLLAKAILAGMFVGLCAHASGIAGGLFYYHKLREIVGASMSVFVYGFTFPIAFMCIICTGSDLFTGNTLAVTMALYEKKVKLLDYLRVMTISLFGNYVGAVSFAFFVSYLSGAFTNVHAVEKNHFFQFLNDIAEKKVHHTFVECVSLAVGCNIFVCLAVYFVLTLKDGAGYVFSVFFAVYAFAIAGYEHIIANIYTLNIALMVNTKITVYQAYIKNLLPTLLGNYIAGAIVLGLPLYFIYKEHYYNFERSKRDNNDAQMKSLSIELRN
Protocol: FCCS measurements were conducted and analyzed as before.[20],[30] Briefly, membranes of stably transfected cells expressing PfFNT with a C-terminal GFP (green) were solubilized. BH267.meta 2 fused with DY647 (red) was used as a tracer to monitor the binding of compounds in a competition assay. Assays were done in […] glass bottom plates (cat. no. PS96B-G175, SWISSCI, Switzerland) using a plate reader (Insight, Evotec Technologies, Germany) fitted with a U-Apo300 40× water immersion lens, NA 1.15 (Olympus, Japan). Excitation was done with an argon-ion laser (488 nm) and a helium–neon laser (633 nm). Fluorescence fluctuations were recorded 10 times for 5 s per sample and fitted using FCS+ plus Analyze (PerkinElmer software). Initially, IC50 values were determined from the concentration of the dual labeled complex titrated against a competitor in a range of 100 pM to 100 μM (Figure S1). Then, Ki values were calculated using the Cheng Prusoff equation[31] based on the previously determined KD value for the BH267.meta-DY647 tracer.[20]

PfFNT [2] = target: T1, PfFNT; assay: Yeast-based PfFNT 14C-lactate transport assay; type: cell-based
Protocol: Lactate transport functionality of PfFNT was assayed as described before.[4] Briefly, Saccharomyces cerevisiae W303-1A jen1Δady2Δcells[32] (MATa, can1-100, ade2-loc, his3-11-15, leu2-3,-112, trp1-1-1, ura3-1, jen1::kanMX4, ady2::hphMX4) kindly provided by M. Casal expressing PfFNT was grown at 29 °C to an OD600 of 1 (±0.1). Harvested cells were resuspended to an OD600 of 50 (±5) in 50 mM HEPES/Tris, pH 6.8 (±0.1). 10–15 min prior to the assay, 80 μL of yeast suspension were added to 1 μL of DMSO with or without inhibitor in a 1.5 mL reaction tube at 18 °C. Twenty μL of L-lactate solution spiked with [1-^14C]-L-lactate (Hartmann Analytic) was added yielding a 1 mM inward gradient with 0.04 μCi label. Transport was stopped after 30 s by abrupt dilution with 1 mL of ice-cold water, vacuum filtration via GF/C filter membranes (Whatman), and washing with 7 mL of ice-cold water. The radio label was analyzed by liquid scintillation counting in 3 mL of scintillation cocktail (Rotiszint eco plus, Carl Roth) using a Packard TriCarb 2900 TR (PerkinElmer Inc.).
Transport assays in yeast were done in triplicate biological replicates. At least nine technical replicates were measured around the IC50 value, concentrations with no or full inhibition were determined from at least three technical replicates. EC50-values were determined from 2 to 4 biological replicates. IC50 and EC50 curves were fitted by the Hill equation with variable slope (Graph Pad Prism 10). Error bars denote ± SEM (for n ≥ 3) or ± range (for n = 2). For the EC50-value of 7a the error of the fitting of the curve is given. Cytotoxicity was determined from biological triplicates; error is shown as SEM.

[3] = system: Plasmodium falciparum 3D7 parasites; assay: P. falciparum 3D7 culture growth assay in erythrocytes (in vitro activity); type: cell-based; settings: for EC50 / activity at 0.05 µM / activity at 0.1 µM / activity at 0.2 µM: Plasmodium falciparum, 3D7, Erythrocyte, 48 h; for EC50: read-out: EC50 (in vitro, 3D7); for activity at 0.05 µM: 50 nM compound, read-out: % Growth at 50 nM (in vitro, 3D7); for activity at 0.05 µM / activity at 0.1 µM / activity at 0.2 µM: % of untreated control; for activity at 0.1 µM: 100 nM compound, read-out: % Growth at 100 nM (in vitro, 3D7); for activity at 0.2 µM: 200 nM compound, read-out: % Growth at 200 nM (in vitro, 3D7)
Protocol: The parasitemia was measured using an LSR II FACS (BD Biosciences) as described.[34],[35] Growth was assessed as % of untreated control. EC50 curves were plotted using Graph Pad Prism.
Transport assays in yeast were done in triplicate biological replicates. At least nine technical replicates were measured around the IC50 value, concentrations with no or full inhibition were determined from at least three technical replicates. […] IC50 and EC50 curves were fitted by the Hill equation with variable slope (Graph Pad Prism 10). Error bars denote ± SEM (for n ≥ 3) or ± range (for n = 2). […] Cytotoxicity was determined from biological triplicates; error is shown as SEM.

[4] = 14C-lactate transport, PfFNT wild type, read-out: IC50 (transport, yeast)

SMILES	Ki (PfFNT [1])	IC50 (PfFNT [2]; [4])	EC50 ([3]; cultures in erythrocytes)	Ki (PfFNT [1]; competition against BH267.meta-DY647 tracer, Cheng Prusoff, read-out: Ki (FCCS, protein))	IC50 (PfFNT [2])	EC50 [3]	activity at 0.05 µM [3]	activity at 0.1 µM [3]	activity at 0.2 µM [3]	times lower in vitro activity (vs 7e) ([3]; 3D7)
O=C(/C=C(\O)C(F)(F)c1ccccc1)c1cccnc1 [3a, 4,4-Difluoro-3-hydroxy-4-phenyl-1-(pyridin-3-yl)but-2-en-1-one]	5.84 ± 0.96 µM	1.14 ± 0.2 µM	36.6 ± 11.1 µM							
O=C(/C=C(\O)C(F)(F)C(F)(F)C(F)(F)F)c1cccnc1 [3b, 4,4,5,5,6,6,6-Heptafluoro-3-hydroxy-1-(pyridin-3-yl)hex-2-en-1-on]				0.03 ± 0.003 µM	0.34 ± 0.05 µM	1.17 ± 0.03 µM				
COC(F)(F)C(F)(F)/C(O)=C/C(=O)c1cccnc1 [3c, 4,4,5,5-Tetrafluoro-3-hydroxy-5-methoxy-1-(pyridin-3-yl)pent-2-en-1-one]	0.093 ± 0.002 µM	0.31 ± 0.01 µM	3.39 ± 0.01 µM							
O=C(/C=C(\O)C(F)(F)C(F)(F)Cl)c1cccnc1 [3d, 5-Chloro-4,4,5,5-tetrafluoro-3-hydroxy-1-(pyridin-3-yl)pent-2-en-1-one]	0.037 ± 0.021 µM	0.18 ± 0.03 µM	0.35 ± 0.03 µM							
FC(F)(F)C(F)(F)c1nc(-c2cccnc2)n[nH]1 [4a, 3-[5-(1,1,2,2,2-Pentafluoroethyl)-1H-1,2,4-triazol-3-yl]pyridine]	1.61 ± 0.298 µM	8.44 ± 1.85 µM								
FC(F)(F)C(F)(F)c1cc(-c2cccnc2)n[nH]1 [4b, 3-[5-(1,1,2,2,2-Pentafluoroethyl)-1H-pyrazol-3-yl]pyridine]	> 80 µM	~1000 µM								
O=C(/C=C(\O)C(F)(F)C(F)(F)F)c1ccco1 [5a, 4,4,5,5,5-Pentafluoro-1-(furan-2-yl)-3-hydroxypent-2-en-1-one]	0.037 ± 0.005 µM	0.17 ± 0.06 µM	1.98 ± 0.04 µM							
O=C(/C=C(\O)C(F)(F)C(F)(F)F)c1ccoc1 [5b, 4,4,5,5,5-Pentafluoro-1-(furan-3-yl)-3-hydroxypent-2-en-1-one]	0.072 ± 0.006 µM	0.1 ± 0.01 µM	0.86 ± 0.08 µM							
O=C(/C=C(\O)C(F)(F)C(F)(F)F)c1cccs1 [5c, 4,4,5,5,5-Pentafluoro-3-hydroxy-1-(thiophen-2-yl)pent-2-en-1-one]	0.045 ± 0.025 µM	0.11 ± 0.01 µM	1.92 ± 0.17 µM							
O=C(/C=C(\O)C(F)(F)C(F)(F)F)c1ccsc1 [5d, 4,4,5,5,5-Pentafluoro-3-hydroxy-1-(thiophen-3-yl)pent-2-en-1-one]	0.085 ± 0.004 µM	0.15 ± 0.01 µM	1.87 ± 0.15 µM							
O=C(/C=C(\O)C(F)(F)C(F)(F)F)c1ccc(NCc2ccccc2)nc1 [7a, 1-[6-(Benzylamino)pyridin-3-yl]-4,4,5,5,5-pentafluoro-3-hydroxypent-2-en-1-one]	0.032 ± 0.015 µM	0.51 ± 0.15 µM	0.0779 µM				71%	32%	14%	
Nc1ccc(C(=O)/C=C(\O)C(F)(F)C(F)(F)F)cn1 [7b, 1-(6-Aminopyridin-3-yl)-4,4,5,5,5-pentafluoro-3-hydroxypent-2-en-1-one]	0.031 ± 0.006 µM	0.19 ± 0.02 µM					79%	65%	29%	at least 3 times
CNc1ccc(C(=O)/C=C(\O)C(F)(F)C(F)(F)F)cn1 [7c, 4,4,5,5,5-Pentafluoro-3-hydroxy-1-(6-(methylamino)pyridin-3-yl)pent-2-en-1-one]	0.036 ± 0.012 µM	0.13 ± 0.02 µM					103%	97%	85%	
CCNc1ccc(C(=O)/C=C(\O)C(F)(F)C(F)(F)F)cn1 [7d, 1-(6-(Ethylamino)pyridin-3-yl)-4,4,5,5,5-pentafluoro-3-hydroxypent-2-en-1-one]	0.021 ± 0.005 µM	0.12 ± 0.01 µM					45%	13%	6%	
CCCCNc1ccc(C(=O)/C=C(\O)C(F)(F)C(F)(F)F)cn1 [7f, 1-(6-(Butylamino)pyridin-3-yl)-4,4,5,5,5-pentafluoro-3-hydroxypent-2-en-1-one]	0.027 ± 0.004 µM	0.33 ± 0.01 µM					25%	15%	10%	
CCCCCNc1ccc(C(=O)/C=C(\O)C(F)(F)C(F)(F)F)cn1 [7g, 4,4,5,5,5-Pentafluoro-3-hydroxy-1-(6-(pentylamino)pyridin-3-yl)pent-2-en-1-one]	0.013 ± 0.001 µM	0.39 ± 0.03 µM					37%	12%	6%	
COCCCNc1ccc(C(=O)/C=C(\O)C(F)(F)C(F)(F)F)cn1 [7h, 4,4,5,5,5-Pentafluoro-3-hydroxy-1-(6-((3-methoxypropyl)amino)pyridin-3-yl)pent-2-en-1-one]	0.055 ± 0.006 µM	0.16 ± 0.01 µM					65%		17%	
O=C(/C=C(\O)C(F)(F)C(F)(F)F)c1ccc(NCC(F)(F)F)nc1 [7i, 4,4,5,5,5-Pentafluoro-3-hydroxy-1-(6-((2,2,2-trifluoroethyl)amino)pyridin-3-yl)pent-2-en-1-one]	0.024 ± 0.006 µM	0.21 ± 0.02 µM					71%	38%	9%	
CC(C)CNc1ccc(C(=O)/C=C(\O)C(F)(F)C(F)(F)F)cn1 [7j, 4,4,5,5,5-Pentafluoro-3-hydroxy-1-(6-(isobutylamino)pyridin-3-yl)pent-2-en-1-one]	0.03 ± 0.003 µM	0.28 ± 0.03 µM					61%	17%	11%	
O=C(/C=C(\O)C(F)(F)C(F)(F)F)c1ccc(N2CCNCC2)nc1 [7t, 4,4,5,5,5-Pentafluoro-3-hydroxy-1-[6-(piperazin-1-yl)pyridin-3-yl]pent-2-en-1-one]	0.858 ± 0.129 µM	17.3 ± 6.5 µM								
